{"source": "patent US20240108011A1", "about": "“HERBICIDAL COMBINATIONS AND COMPOSITIONS AND METHODS FOR TREATING WEEDS USING THE SAME” (UPL Corporation Limited, priority 2021, published 2024)", "format_in_all_cases": "in vivo", "key": {"Euphorbia heterophylla": {"tested_on": "Euphorbia heterophylla", "test": "Greenhouse trial, weed control efficacy on Euphorbia heterophylla", "method": "In this example, synergy of the combination of L-glufosinate ammonium (150 gai/ha) and 2,4-D choline (137 gai/ha) Euphorbia heterophylla was determined using the calculated percentage efficacy after 7, 14, 21 days of application (DAA). The results are recorded in the Table 4 below:\nIn this example, synergy of using the combination of L-glufosinate ammonium (150 gai/ha) and 2,4-D choline (228 gai/ha) on Euphorbia heterophylla was determined using the calculated percentage efficacy after 14, 21 days of application (DAA)."}, "Eleusine indica": {"tested_on": "Eleusine indica", "test": "Greenhouse trial, weed control efficacy on Eleusine indica", "conditions": "Table 3", "method": "In this example, synergy of the combination of L-glufosinate ammonium (150 gai/ha) and 2,4-D choline (228 gai/ha) on Eleusine indica was determined using the calculated percentage efficacy after 7, 14, 21 and 28 days of application (DAA)."}, "Borreria verticilata": {"tested_on": "Borreria verticilata", "test": "Greenhouse trial, weed control efficacy on Borreria verticilata", "conditions": "7 DAA", "method": "In this example, synergy from the combination of L-glufosinate ammonium (150 gai/ha) and 2,4-D choline (137 gai/ha) on Borrelia verticilata was determined using the calculated percentage efficacy after 7 days of application (DAA). The results are recorded in Table 1 below:\nIn this example, synergy of the combination of L-glufosinate ammonium (150 gai/ha) and 2,4-D choline (228 gai/ha) on Borrelia verticilata was determined using the calculated percentage efficacy after 7 days of application (DAA)."}}, "data": [{"smiles": "C[N+](C)(C)CCO.O=C([O-])COc1ccc(Cl)cc1Cl", "note": "[2,4-D choline]", "values": [{"measurement": "Observed efficacy (%) of 2,4-D choline (137 gai/ha)", "setting": "Euphorbia heterophylla; Table 4, 7 DAA", "result": 35, "unit": "%"}, {"measurement": "Observed efficacy (%) of 2,4-D choline (137 gai/ha)", "setting": "Euphorbia heterophylla; Table 4, 14 DAA", "result": 30, "unit": "%"}, {"measurement": "Observed efficacy (%) of 2,4-D choline (137 gai/ha)", "setting": "Euphorbia heterophylla; Table 4, 21 DAA", "result": 25, "unit": "%"}, {"measurement": "Observed efficacy (%) of 2,4-D choline (228 gai/ha)", "setting": "Euphorbia heterophylla; Table 5, 14 DAA", "result": 30, "unit": "%"}, {"measurement": "Observed efficacy (%) of 2,4-D choline (228 gai/ha)", "setting": "Euphorbia heterophylla; Table 5, 21 DAA", "result": 30, "unit": "%"}, {"measurement": "Observed efficacy (%) of 2,4-D choline (228 gai/ha)", "setting": "Eleusine indica; 7 DAA", "result": 10, "unit": "%"}, {"measurement": "Observed efficacy (%) of 2,4-D choline (228 gai/ha)", "setting": "Eleusine indica; 14 DAA", "result": 10, "unit": "%"}, {"measurement": "Observed efficacy (%) of 2,4-D choline (228 gai/ha)", "setting": "Eleusine indica; 21 DAA", "result": 10, "unit": "%"}, {"measurement": "Observed efficacy (%) of 2,4-D choline (228 gai/ha)", "setting": "Eleusine indica; 28 DAA", "result": 5, "unit": "%"}, {"measurement": "Observed efficacy (%) of 2,4-D choline (137 gai/ha)", "setting": "Borreria verticilata; Table 1, 137 gai/ha", "result": 30, "unit": "%"}, {"measurement": "Observed efficacy (%) of 2,4-D choline (228 gai/ha)", "setting": "Borreria verticilata; Table 2, 228 gai/ha", "result": 30, "unit": "%"}]}, {"smiles": "CP(=O)(O)CC[C@H](N)C(=O)O.N", "note": "[L-glufosinate ammonium, ammonium (2S)-2-amino-4-(methylphosphinato)butyric acid]", "values": [{"measurement": "Observed efficacy (%) of L-glufosinate ammonium (150 gai/ha)", "setting": "Euphorbia heterophylla; Table 4, 7 DAA", "result": 95, "unit": "%"}, {"measurement": "Observed efficacy (%) of L-glufosinate ammonium (150 gai/ha)", "setting": "Euphorbia heterophylla; Table 4, 14 DAA", "result": 98, "unit": "%"}, {"measurement": "Observed efficacy (%) of L-glufosinate ammonium (150 gai/ha)", "setting": "Euphorbia heterophylla; Table 4, 21 DAA", "result": 98, "unit": "%"}, {"measurement": "Observed efficacy (%) of L-glufosinate ammonium (150 gai/ha)", "setting": "Euphorbia heterophylla; Table 5, 14 DAA", "result": 98, "unit": "%"}, {"measurement": "Observed efficacy (%) of L-glufosinate ammonium (150 gai/ha)", "setting": "Euphorbia heterophylla; Table 5, 21 DAA", "result": 98, "unit": "%"}, {"measurement": "Observed efficacy (%) of L-glufosinate ammonium (150 gai/ha)", "setting": "Eleusine indica; 7 DAA", "result": 70, "unit": "%"}, {"measurement": "Observed efficacy (%) of L-glufosinate ammonium (150 gai/ha)", "setting": "Eleusine indica; 14 DAA", "result": 65, "unit": "%"}, {"measurement": "Observed efficacy (%) of L-glufosinate ammonium (150 gai/ha)", "setting": "Eleusine indica; 21 DAA", "result": 60, "unit": "%"}, {"measurement": "Observed efficacy (%) of L-glufosinate ammonium (150 gai/ha)", "setting": "Eleusine indica; 28 DAA", "result": 50, "unit": "%"}, {"measurement": "Observed efficacy (%) of L-glufosinate ammonium (150 gai/ha)", "setting": "Borreria verticilata; Table 1", "result": 65, "unit": "%"}, {"measurement": "Observed efficacy (%) of L-glufosinate ammonium (150 gai/ha)", "setting": "Borreria verticilata; Table 2", "result": 65, "unit": "%"}]}]}
